Results on two compounds are retold here after US4036846A, “3-Hydroxy and 3-acetoxy-6-triphenyl-methylaminopenams” (priority 1976, dated 1977).

Each structure is given as a SMILES string. Where “and” joins values, the source holds several entries; their conditions need not be identical. Identical values can stand only once. Counter-ions that a name gives are not always drawn. Like-named read-outs stand apart in the source and are kept apart here.

Holding throughout (test): microbe, parasite or virus in culture
In one experiment the test system is Staph. aureus 01A005. The class given is cell-based, Staphlococcus aureus. To be noted: brain-heart infusion agar, 37° C., anaerobic, sodium salts, separate Test Nos. 1-3; for MIC: Staphylococcus aureus.
The test system of the next experiment is Staph. aureus 01A006. The class given is cell-based, Staphlococcus aureus. The following applies: brain-heart infusion agar, 37° C., anaerobic, sodium salts, separate Test Nos. 1-3; for MIC: Staphylococcus aureus.
The test system of the next experiment is Strep. zoo. 02H001. The class given is cell-based, Streptococcus zoobacter. To be noted: brain-heart infusion agar, 37° C., anaerobic, sodium salts, separate Test Nos. 1-3; for MIC: Streptococcus.
A further experiment concerns Strep. equi. 02I001. The format is cell-based, Streptococcus equis. To be noted: brain-heart infusion agar, 37° C., anaerobic, sodium salts, separate Test Nos. 1-3.

In the case of `COP(=O)(O)C1N2C(=O)C(NC(=O)COc3ccccc3)C2SC1(C)C` (centres unmarked) [6-(2-Phenoxyacetamido)-2,2-dimethyl-3-(0-methylphosphono)penam, sodium salt], the MIC with Staph. aureus 01A005 (Staph. aureus 01A005, read-out: MIC (minimal inhibitory concentration)) was 200 µg/mL; with Staph. aureus 01A006 (Staph. aureus 01A006, read-out: MIC (minimal inhibitory concentration)), 200 µg/mL; in the experiment on Strep. zoo. 02H001 (Strep. zoo. 02H001, read-out: MIC (minimal inhibitory concentration)), over 200 µg/mL.
`CC1(C)S[C@@H]2C(NC(=O)COc3ccccc3)C(=O)N2C1P(=O)(O)O.[Na]` (some centres unmarked) [6-(2-Phenoxyacetamido)-2,2-dimethyl-3-phosphonopenam, sodium salt]: the “MIC (minimal inhibitory concentration)” value in the experiment with Staph. aureus 01A005 (Staph. aureus 01A005, sodium salt) is over 200 µg/mL; in the experiment on Staph. aureus 01A006 (Staph. aureus 01A006, sodium salt) it was over 200 µg/mL; in the experiment with Strep. equi. 02I001 (Strep. equi. 02I001, sodium salt), 100 µg/mL; in the experiment with Strep. zoo. 02H001 (Strep. zoo. 02H001, sodium salt), 100 µg/mL and 200 µg/mL. In addition, the MIC with Staph. aureus 01A005 (01A005, read-out: MIC (minimal inhibitory concentration), Staph. aureus 01A005) is 200 µg/mL; in the experiment on Staph. aureus 01A006 (01A006, read-out: MIC (minimal inhibitory concentration), Staph. aureus 01A006), 200 µg/mL; with Strep. equi. 02I001 (Streptococcus equi, read-out: MIC (minimal inhibitory concentration), Strep. equi. 02I001) it was over 200 µg/mL; in the experiment on Strep. zoo. 02H001 (read-out: MIC (minimal inhibitory concentration), Strep. zoo. 02H001), over 200 µg/mL.
